For 19 compounds, IC50 results are on record in ChEMBL document CHEMBL1129131, “Identification and structure-activity relationship studies of osthol, a cytotoxic principle from Cnidium monnieri” (Bioorg Med Chem Lett, 1996).

Structures are written as SMILES. pIC50: −log10 of the molar value. In brackets after ≈: the same amount, converted by molar mass.

One assay concerns MM46. Put plainly: Compound was tested for its cytotoxicity against MM46 cells. The conditions noted are these: Mus musculus. It counts as functional, cell-based.
By IC50 is commonly meant the concentration at which inhibition is half-maximal. Low values mean inhibition by little substance, high ones a need for much substance. `COc1ccc2ccc(=O)oc2c1CC=C(C)C` [OSTHOLE]: the IC50 was 8.6 µg/mL (≈ 35.2 µM).

The next assay relates to KB. Nature of the assay: Compound was tested for its cytotoxicity against KB cells. The class given is functional, cell-based. The conditions noted are these: Homo sapiens.
The compound `COc1ccc2ccc(=O)oc2c1CC=C(C)C` [OSTHOLE] returned an IC50 of 12 µg/mL (≈ 49.1 µM).

The next assay relates to P388. Put plainly: Compound was tested for its cytotoxicity against P-388 cells. The class given is functional, cell-based. Particulars: Mus musculus.
`COc1ccc2ccc(=O)oc2c1CC=C(C)C` [OSTHOLE] returned an IC50 of 3.1 µg/mL (≈ 12.7 µM).

Another assay deals with V79. Put plainly: Cytotoxicity against V-79 cells. The class given is functional, cell-based. Particulars: Cricetulus griseus.
The term pIC50 denotes −log10 of the IC50, conventionally taken in molar units. Read a low pIC50 as a large IC50. The compound `COc1ccc2c(c1CCC(C)C)OC(=O)CC2` showed a pIC50 of under 4.00. The compound `COc1ccc2ccc(=O)oc2c1CCC(C)(C)O` showed a pIC50 of under 4.00.

Compound `CCCOc1ccc2ccc(=O)oc2c1CCC(C)C` gave a pIC50 of 5.25.

`CC(C)CCc1c(O)ccc2c1OC(=O)CC2` gave a pIC50 of under 4.00. On to `CCCCOc1ccc2ccc(=O)oc2c1CCC(C)C`, for which the pIC50 is 4.80. Still for that read-out and setting: then `COc1ccc2ccc(=O)oc2c1CC(O)C(C)(C)O` (configuration not stated), with under 4.00; and `CC(C)CCc1c(O)ccc2ccc(=O)oc12`, with 4.40. Turning to `COc1ccc2ccc(=O)oc2c1CC(Br)C(C)(C)Br` (configuration not stated), the pIC50 is 4.22. The same measure, in the same setting: the result for `CCCC(=O)c1ccc2ccc(=O)oc2c1CCC(C)C` reads 4.24; that for `CC(C)CCc1cccc2ccc(=O)oc12`, 4.22.

`CC(=O)c1ccc2ccc(=O)oc2c1CCC(C)C` had a pIC50 of 4.22. In turn, `COc1ccc2ccc(=O)oc2c1CC1OC1(C)C` (configuration not stated) had a pIC50 of under 4.00. As to `CCCCCCCOc1ccc2ccc(=O)oc2c1CCC(C)C`, the pIC50 was 4.77. On the same count and under the same terms, then `COc1ccc2ccc(=O)oc2c1CCC(C)C`, with 4.24. Same read-out and setting: the result for `CCOc1ccc2ccc(=O)oc2c1CCC(C)C` reads 5.24. `O=c1ccc2ccccc2o1` [COUMARIN] had a pIC50 of under 4.00. Consider `COc1ccc2ccc(=O)oc2c1` [HERNIARIN], for which the negative logarithm of the IC50 (pIC50) was under 4.00. On the same count and under the same terms, the result for `COc1ccc2ccc(=O)oc2c1CC=C(C)C` [OSTHOLE] reads 4.24; that for `O=c1ccc2ccc(O)cc2o1` [UMBELLIFERONE], 4.24.
